This experiment has as its target T1, hOX2R (Homo sapiens, UniProt O43614).
T1 construct: expressed in transfected cells; host or cells: CHO cells (G418 selection)
T1 sequence (O43614 1-444): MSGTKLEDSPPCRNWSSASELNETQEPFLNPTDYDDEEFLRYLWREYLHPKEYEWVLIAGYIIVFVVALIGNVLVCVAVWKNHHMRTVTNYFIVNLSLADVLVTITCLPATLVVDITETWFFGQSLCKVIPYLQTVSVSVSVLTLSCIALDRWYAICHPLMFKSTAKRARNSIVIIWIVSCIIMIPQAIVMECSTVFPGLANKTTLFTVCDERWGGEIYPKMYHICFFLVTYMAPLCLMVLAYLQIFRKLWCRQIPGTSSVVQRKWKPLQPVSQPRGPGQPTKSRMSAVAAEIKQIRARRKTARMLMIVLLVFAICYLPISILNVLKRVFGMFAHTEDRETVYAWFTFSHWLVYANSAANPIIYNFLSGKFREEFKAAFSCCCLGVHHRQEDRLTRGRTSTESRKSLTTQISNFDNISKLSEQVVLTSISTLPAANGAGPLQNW
Nature of the experiment: hOX2R IPone assay (orexin receptor agonism). The experiment is classed as cell-based. The following applies: IPone readout; for hOX2R_Ipone max %act: maximal activation; for EC50: orexin receptor agonist, read-out: hOX2R_IPone EC50.

Our source for the hOX2R_Ipone max %act and EC50 values is patent US12686690B2, “Macrocyclic urea orexin receptor agonists” (Merck Sharp & Dohme LLC, priority 2020, dated 2026).

With `CCN1C(=O)N[C@@H](C)CCCC(F)(F)COc2nc(cn3ccnc23)-c2cc(ncc2OC)[C@H]1C` [Example 221, (3R,7S,E)-4-ethyl-11,11-difluoro-25-methoxy-3,7-dimethyl-13-oxa-4,6-diaza-1(6,8)-imidazo[1,2-a]pyrazina-2(4,2)-pyridinacyclotridecaphan-5-one], the hOX2R_Ipone max %act came to 90.75% and the half-maximal effective concentration (EC50) was 408 nM.

In the case of `CCN1C(=O)NC(CC2CC(F)(F)C2)CCCCCOc2nc(cn3ccnc23)-c2cc(ncc2OC)[C@H]1C` (single isomer, unassigned) [Example 69A], the hOX2R_Ipone max %act came out at 99.7% and the EC50 was determined as 6.6 nM.

Regarding `CCN1C(=O)NC(CCC(C)(F)F)CCCCCOc2nc(nn3ccnc23)-c2cc(ncc2OC)[C@H]1C` (stereo partly drawn) [Example 200, (3R,E)-7-(3,3-difluorobutyl)-4-ethyl-25-methoxy-3-methyl-13-oxa-4,6-diaza-1(2,4)-imidazo[2,1-f][1,2,4]triazina-2(4,2)-pyridinacyclo-tridecaphan-5-one], the hOX2R_Ipone max %act is on record as 99.5% and the EC50 worked out at 0.53 nM.

On to `CCN1C(=O)NCCOCCCOc2nc(cn3ccnc23)-c2cccc(c2)[C@H]1C` [Example 17, (12R)-13-ethyl-12-methyl-12,13, 16,17,20,21-hexahydro-19H-6,23-(azeno)-11,7-(metheno) imidazo[1,2-o][1, 18,4,6,15]dioxa-triazacyclohenicosin-14(15H)-one], for which the hOX2R_Ipone max %act was found to be 99.6% and the EC50 was 19.4 nM.

For the compound `CCN1C(=O)NC(COC)CCCCCOc2nc(cn3ccnc23)-c2cc(ncc2OC)[C@H]1C` (single isomer, unassigned) [Example 58A], the hOX2R_Ipone max %act was 100.8% and the EC50 was 48.9 nM.

As to `CCN1C(=O)N[C@@H](CCC(C)(F)F)CCCCCOc2nc(cc3ncnn23)-c2cc(ncc2OC)[C@H]1C` [Example 176], the hOX2R_Ipone max %act was found to be 99.6% and the EC50 was determined as 2.97 nM.

Take `CCN1Cc2cc(c(OC)cn2)-c2cn3ccnc3c(n2)OCCCC[C@H](CCC(F)(F)F)NC1=O` [Example 45, (16R)-13-ethyl-8-methoxy-16-(3,3,3-trifluoropropyl)-12,13,15,16,17,18,19,20-octahydro-14H-6,22-(azeno)-11,7-(metheno)imidazo[2,1-c][1,4,10,13,15]oxatetra-azacycloicosin-14-one]: the hOX2R_Ipone max %act was found to be 100.1% and the concentration for a half-maximal effect (EC50) came out at 14.1 nM.

`CCN1C(=O)NC(CCC(C)(F)F)CCCCCOc2nc(c(C)n3ncnc23)-c2cc(ncc2OC)C1C` [Example 172, (3R,7R,E)-7-(3,3-difluorobutyl)-4-ethyl-25-methoxy-15,3-dimethyl-13-oxa-4,6-diaza-1(6,8)-[1,2,4]triazolo[1,5-a]pyrazina-2(4,2)-pyridinacyclotridecaphan-5-one]: the hOX2R_Ipone max %act is on record as 101% and the EC50 turned out to be 7.2 nM.

For `C[C@@H]1c2cc(c(F)cn2)-c2nc(c3nccn3n2)OCCCCCC(CCC(F)F)NC(=O)N1C1CC1` (stereo partly drawn) [Example 205, (3R,E)-4-cyclopropyl-7-(3,3-difluoropropyl)-25-fluoro-3-methyl-13-oxa-4,6-diaza-1(2,4)-imidazo[2,1-f] [1,2,4] triazina-2(4,2)-pyridinacyclo-tridecaphan-5-one], the hOX2R_Ipone max %act was found to be 104.8% and the EC50 is 2.39 nM.

Consider `CCN1C(=O)NC(CC(F)F)CCCCCOc2nc(cn3ccnc23)-c2cc(ncc2OC)[C@H]1C` (stereo partly drawn) [Example 186, (3R,E)-7-(2,2-difluoroethyl)-4-ethyl-25-methoxy-3-methyl-13-oxa-4,6-diaza-1(6,8)-imidazo[1,2-a]pyrazina-2(4,2)-pyridinacyclotridecaphan-5-one], for which the hOX2R_Ipone max %act is given as 102.3% and the EC50 was 1.02 nM.

For the compound “(9R,13R,E)-14-Cyclopropyl-12-ethyl-13-methyl-9-(3,3,3-trifluoropropyl)-3-oxa-10,12-diaza-1(5,2)-thiazola-2(6,8)-imidazo[1,2-a]pyrazinacyclotridecaphan-11-one [Example 209]”, the hOX2R_Ipone max %act was determined as 99.62% and the EC50 came out at 1.1 nM.

On to `CCN1C(=O)NCC(C(F)(F)F)N(C)CCCOc2nc(cn3ccnc23)-c2cccc(c2)C1C` [Example 26A, (3R,E)-4-ethyl-3,9-dimethyl-8-(trifluoromethyl)-13-oxa-4,6,9-triaza-1(6,8)-imidazo[1,2-a]pyrazina-2(1,3)-benzenacyclotridecaphan-5-one], for which the hOX2R_Ipone max %act was determined as 99.4% and the EC50 was 13.9 nM.

In the case of `CCN1C(=O)NC(COCC(F)(F)F)CCCCCOc2nc(cn3ccnc23)-c2cc(ncc2OC)[C@H]1C` (stereo partly drawn) [Example 188, (3R,E)-4-ethyl-25-methoxy-3-methyl-7-((2,2,2-trifluoroethoxy)methyl)-13-oxa-4,6-diaza-1(6,8)-imidazo [1,2-a]pyrazina-2(4,2)-pyridinacyclotridecaphan-5-one], the hOX2R_Ipone max %act turned out to be 100.6% and the EC50 was 0.74 nM.

Consider `CCN1C(=O)NC(CC(F)(F)CC)CCOCCOc2cn3ncnc3c(n2)-c2cc(ncc2C)C1C` [Example 122, (3R,E)-7-(2,2-difluorobutyl)-4-ethyl-25,3-dimethyl-10,13-dioxa-4,6-diaza-1(6,8)-[1,2,4]triazolo[1,5-a]pyrazina-2(4,2)-pyridinacyclotridecaphan-5-one], for which the hOX2R_Ipone max %act was 104.4% and the EC50 came to 36.4 nM.

Consider `CCN1C(=O)NCCCOCCOc2nc(cn3ccnc23)-c2cc(ncc2OC)[C@H]1C` [Example 7, (12R)-13-ethyl-8-methoxy-12-methyl-12,13,15,16,17,18,20,21-octahydro-14H-6,23-(azeno)-11,7-(metheno)imidazo[2,1-f][1,4,7,13,16,18]dioxatetra-azacyclohenicosin-14-one], for which the hOX2R_Ipone max %act is reported as 100.6% and the concentration giving a half-maximal response (EC50) turned out to be 4.6 nM.

With `CCN1C(=O)NC(C(C)OC)CCCCCOc2nc(cn3ccnc23)-c2cc(ncc2OC)[C@H]1C` (stereo partly drawn) [Example 191, (3R,E)-4-ethyl-25-methoxy-7-(1-methoxyethyl)-3-methyl-13-oxa-4,6-diaza-1(6,8)-imidazo[1,2-a]pyrazina-2(4,2)-pyridinacyclotridecaphan-5-one], the hOX2R_Ipone max %act amounted to 102.3% and the 50% effective concentration (EC50) worked out at 1.73 nM.

With `CCN1C(=O)N[C@@H](CCC(F)(F)F)CCCCCOc2nc(c(C)n3ccnc23)-c2cc(cnc2OC)[C@H]1C` [Example 86, (12R,16R)-13-ethyl-8-methoxy-5,12-dimethyl-16-(3,3,3-trifluoropropyl)-12,13,16,17,18,19,20, 21-octahydro-6,23-(azeno)-11,7-(metheno)imidazo[2,1-c][1,4,9,13,15] oxatetraazacycloheni-cosin-14(15H)-one], the hOX2R_Ipone max %act is 99.3% and the EC50 turned out to be 3.5 nM.

For the compound `CCN1C(=O)NC(CC2CC2(F)F)CCCCCOc2nc(cn3ccnc23)-c2cc(ncc2OC)[C@H]1C` (single isomer, unassigned) [Example 59A], the hOX2R_Ipone max %act was 101.6% and the EC50 came to 4.1 nM.

`CCN1C(=O)N[C@@H](CCC(F)(F)F)COCCCOc2nc(cn3ncnc23)-c2ccnc(c2F)[C@H]1C` (single isomer, unassigned) [Example 175]: the hOX2R_Ipone max %act is reported as 93.8% and the EC50 stood at 9.06 nM.

As for `CCN1C(=O)N[C@@H](CCC(F)(F)F)CCCCCOc2nc(cn3ccnc23)-c2ccnc(c2)C1(C)C` [Example 143, (R,E)-4-ethyl-3,3-dimethyl-7-(3,3,3-trifluoropropyl)-13-oxa-4,6-diaza-1(6,8)-imidazo[1,2-a]pyrazina-2(4,2)-pyridinacyclotridecaphan-5-one], the hOX2R_Ipone max %act is 89.95% and the EC50 was determined as 271 nM.

Consider `CCN1C(=O)NC(c2csc(C)n2)CCCCCOc2nc(cn3ccnc23)-c2cc(cnc2OC)C1C` [Example 215, (3R,E)-4-ethyl-22-methoxy-3-methyl-7-(2-methylthiazol-4-yl)-13-oxa-4,6-diaza-1(6,8)-imidazo[1,2-a]pyrazina-2(3,5)-pyridinacyclotridecaphan-5-one], for which the hOX2R_Ipone max %act came out at 104.9% and the EC50 was found to be 3.56 nM.

For `CCC1CCCCCOc2nc(cn3ccnc23)-c2cc(ncc2OC)[C@@H](C)N(CC)C(=O)N1` (single isomer, unassigned) [Example 52A], the hOX2R_Ipone max %act worked out at 97% and the EC50 is 548 nM.

In the case of `CCN1C(=O)NC(C2CC2)CCCCCOc2nc(cn3ccnc23)-c2cc(ncc2OC)[C@H]1C` (single isomer, unassigned) [Example 57A], the hOX2R_Ipone max %act is listed as 100.7% and the EC50 was found to be 119 nM.

Turning to `CCN1C(=O)N[C@@H](CCC(F)(F)F)CCCCCOc2nc(cn3ccnc23)-c2cc(nc(C)n2)[C@@H]1C` [Example 119A, (12S,16R)-13-ethyl-9,12-dimethyl-16-(3,3,3-trifluoropropyl)-12,13,16,17,18,19,20,21-octahydro-6,23-(azeno)-11,7-(metheno)imidazo[2,1-c][1,4,8,10,13,15]oxapentaazacyclohenicosin-14(15H)-one], the hOX2R_Ipone max %act is recorded as 100.1% and the EC50 is 166 nM.

On to `CCN1C(=O)NC(CC(O)C(F)(F)F)CCCCCOc2cn3ncnc3c(n2)-c2cc(ncc2OC)C1C` [Example 131, (3R,7R,E)-4-ethyl-25-methoxy-3-methyl-7-((S)-3,3,3-trifluoro-2-hydroxypropyl)-13-oxa-4,6-diaza-1(6,8)-[1,2,4]triazolo[1,5-a]pyrazina-2(4,2)-pyridinacyclotridecaphan-5-one], for which the hOX2R_Ipone max %act amounted to 102.2% and the EC50 was found to be 0.77 nM.

By EC50 is commonly meant the concentration giving half of the maximal effect.
